Assay results published in the supplement of paper PMC10307832.

Assays:
Assay in all cases: relative viability (nuclei count vs DMSO), 5 days (fraction); higher = more cells survive
IPA-3 + AZD7762 = compound: C1=CC=C2C(=C1)C=CC(=C2SSC3=C(C=CC4=CC=CC=C43)O)O [IPA-3] + NC(=O)Nc1cc(-c2cccc(F)c2)sc1C(=O)N[C@H]1CCCNC1 [AZD7762] (partner 0.2 µM)
Outline: (§1)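 Nuclei were stained with Hoechst during a one-step fixation (final 0.05% Triton X-100, 1% formaldehyde, 1 ug/ml Hoechst) carried out 5 days after dosing, then counted on 4× images. The cells, lung cancer lines in 1536-well plates, had been dosed by pin tool the day after seeding with one drug alone or a fixed anchor-drug dose plus five library-drug doses (not always all listed) in √10 steps. Relative viability is the nuclei count in treated wells divided by that in vehicle wells, and each value is the median of duplicate plates.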

IPA-3 + Vorinostat = compound: C1=CC=C2C(=C1)C=CC(=C2SSC3=C(C=CC4=CC=CC=C43)O)O [IPA-3] + O=C(CCCCCCC(=O)Nc1ccccc1)NO [Vorinostat] (partner 1 µM)
Outline: as §1

IPA-3 + Olaparib = compound: C1=CC=C2C(=C1)C=CC(=C2SSC3=C(C=CC4=CC=CC=C43)O)O [IPA-3] + O=C(c1cc(Cc2n[nH]c(=O)c3ccccc23)ccc1F)N1CCN(C(=O)C2CC2)CC1 [Olaparib] (partner 8 µM)
Outline: as §1

Doramapimod + Vorinostat = compound: Cc1ccc(-n2nc(C(C)(C)C)cc2NC(=O)Nc2ccc(OCCN3CCOCC3)c3ccccc23)cc1 [Doramapimod] + O=C(CCCCCCC(=O)Nc1ccccc1)NO [Vorinostat] (partner 1 µM)
Outline: as §1

Cell Line	relative viability (IPA-3 + AZD7762; first compound 0.2 µM)	relative viability (IPA-3 + AZD7762; first compound 0.6325 µM)	relative viability (IPA-3 + AZD7762; first compound 2 µM)	relative viability (IPA-3 + AZD7762; first compound 6.325 µM)	relative viability (IPA-3 + AZD7762; first compound 20 µM)	relative viability (IPA-3 + Vorinostat; first compound 0.2 µM)	relative viability (IPA-3 + Vorinostat; first compound 0.6325 µM)	relative viability (IPA-3 + Vorinostat; first compound 2 µM)	relative viability (IPA-3 + Vorinostat; first compound 6.325 µM)	relative viability (IPA-3 + Vorinostat; first compound 20 µM)	relative viability (IPA-3 + Olaparib; first compound 0.2 µM)	relative viability (IPA-3 + Olaparib; first compound 0.6325 µM)	relative viability (IPA-3 + Olaparib; first compound 2 µM)	relative viability (IPA-3 + Olaparib; first compound 6.325 µM)	relative viability (IPA-3 + Olaparib; first compound 20 µM)	relative viability (Doramapimod + Vorinostat; first compound 0.02 µM)	relative viability (Doramapimod + Vorinostat; first compound 0.06325 µM)	relative viability (Doramapimod + Vorinostat; first compound 0.2 µM)	relative viability (Doramapimod + Vorinostat; first compound 0.6325 µM)	relative viability (Doramapimod + Vorinostat; first compound 2 µM)
LXF-289	1.22	1.01	1.17	1.25	1.22	0.825	0.862	0.692	0.827	0.898	1.22	1	1.09	1.07	1.23	0.811	0.775	0.747	0.723	0.635
NCI-H1793	0.56	0.526	0.424	0.641	0.527	1.12	0.714	0.64	0.712	0.687	0.699	0.773	0.923	0.893	1.2	0.718	0.708	0.673	0.749	0.519
LU99A	0.403	0.318	0.28	0.365	0.309	0.642	0.4	0.459	0.461	0.379	0.304	0.268	0.291	0.277	0.249	0.443	0.455	0.578	0.53	0.474
PC-14	0.402	0.362	0.431	0.328	0.407	0.952	0.759	0.616	0.68	0.747	0.286	0.29	0.335	0.222	0.134	0.802	0.751	0.727	0.898	0.578
NCI-H2085	1.11	0.956	1.02	0.893	1.21	0.868	0.756	0.819	0.726	0.957	0.785	0.759	0.816	0.768	0.883	0.827	0.821	0.782	0.872	0.722
NCI-H2170	1.1	0.826	0.78	0.795	0.919	0.87	0.997	1.04	0.768	0.901	0.67	0.561	0.646	0.614	0.624	0.737	0.882	0.704	0.844	0.814
HCC-78	0.712	0.625	0.671	0.697	0.904	0.464	0.437	0.476	0.442	0.489	0.885	0.836	0.805	0.881	0.932	0.456	0.369	0.492	0.434	0.412
NCI-H1395	0.377	0.413	0.423	0.373	0.345	0.679	0.754	0.588	0.635	0.747	0.507	0.456	0.465	0.474	0.457	0.722	0.943	0.975	0.67	0.571
